# Data: ChEMBL document CHEMBL5131388, “Discovery of novel brain-penetrant GluN2B NMDAR antagonists via pharmacophore-merging strategy as anti-stroke therapeutic agents” (Eur J Med Chem, 2022)
# Legend:
# [1] = AUClast in Sprague-Dawley rat at 2.5 mg/kg, iv measured up to 24 hrs by LC/MS-MS analysis; type: ADME, organism-based; design: dose 2.5 mg/kg, time < 24 hrs, route iv; conditions: in vivo
# [2] = Clearance in Sprague-Dawley rat at 2.5 mg/kg, iv measured up to 24 hrs by LC/MS-MS analysis; type: ADME, organism-based; conditions: in vivo
# [3] = MRTinf in Sprague-Dawley rat at 10 mg/kg, po measured up to 24 hrs by LC/MS-MS analysis; type: ADME, organism-based; conditions: in vivo
# [4] = Toxicity in Sprague-Dawley rat assessed as change in spleen/brain index at 150 to 300 mg/kg, po administered as repeated dose once daily for 2 weeks; type: organism-based; conditions: in vivo, 336 h, dose 150-300 mg/kg
# [5] = Half life in Sprague-Dawley rat at 2.5 mg/kg, iv measured up to 24 hrs by LC/MS-MS analysis; type: ADME, organism-based; conditions: in vivo
# Glutamate NMDA receptor = test: Displacement of [3H] ifenprodil from Wistar rat glutamate NMDA receptor incubated for 2 hrs by scintillation counting method; type: protein-complex assay
# [6] = Neuroprotective activity against NMDA-induced neurotoxicity in Sprague-Dawley rat hippocampal neurons assessed as increase in cell viability at 10 uM incubated for 18 hrs followed by NMDA addition and measured after 0.5 hrs by MTT assay; type: functional, Hippocampal neurone; conditions: time 18.5 hrs, 10 µM
# [7] = Toxicity in Sprague-Dawley rat assessed as change in blood glucose level at 150 to 300 mg/kg, po administered as repeated dose once daily for 2 weeks; type: organism-based; conditions: in vivo, 336 h, dose 150-300 mg/kg
# [8] = Ratio AUClast in Sprague-Dawley rat brain to plasma at 10 mg/kg, po measured up to 24 hrs by LC/MS-MS analysis; type: ADME, organism-based; conditions: brain and plasma
# [9] = Tmax in Sprague-Dawley rat at 2.5 mg/kg, iv measured up to 24 hrs by LC/MS-MS analysis; type: ADME, organism-based; conditions: in vivo
# [10] = Half life in Sprague-Dawley rat at 10 mg/kg, po measured up to 24 hrs by LC/MS-MS analysis; type: ADME, organism-based; conditions: in vivo
# [11] = Cmax in Sprague-Dawley rat at 10 mg/kg, po measured up to 24 hrs by LC/MS-MS analysis; type: ADME, organism-based; design: dose 10 mg/kg, time < 24 hrs, route po; conditions: in vivo
# [12] = Neuroprotective activity against NMDA-induced neurotoxicity in Sprague-Dawley rat hippocampal neurons assessed as increase in cell viability at 0.1 uM incubated for 18 hrs followed by NMDA addition and measured after 0.5 hrs by MTT assay; type: functional, Hippocampal neurone; conditions: time 18.5 hrs, 0.1 µM
# Rattus norvegicus [13] = test: Neuroprotective activity in Sprague-Dawley rat model of middle cerebral artery occlusion-induced ischemia-reperfusion injury assessed as decrease in cerebral infarction rate at 20 mg/kg, po measured 24 hrs post injury by TTC staining based histological analysis; type: functional; design: scale not given: the % may be the effect or the level left
# [14] = MRTinf in Sprague-Dawley rat at 2.5 mg/kg, iv measured up to 24 hrs by LC/MS-MS analysis; type: ADME, organism-based; conditions: in vivo
# [15] = AUCinf in Sprague-Dawley rat at 10 mg/kg, po measured up to 24 hrs by LC/MS-MS analysis; type: ADME, organism-based; design: time < 24 hrs, dose 10 mg/kg, route po; conditions: in vivo
# [16] = Toxicity in Sprague-Dawley rat assessed as change in liver/brain index at 150 to 300 mg/kg, po administered as repeated dose once daily for 2 weeks; type: organism-based; conditions: in vivo, 336 h, dose 150-300 mg/kg
# [17] = AUClast in Sprague-Dawley rat at 10 mg/kg, po measured up to 24 hrs by LC/MS-MS analysis; type: ADME, organism-based; design: dose 10 mg/kg, time < 24 hrs, route po; conditions: in vivo
# [18] = Toxicity in Sprague-Dawley rat assessed as change in blood pressure at 150 to 300 mg/kg, po administered as repeated dose once daily for 2 weeks; type: organism-based; conditions: in vivo, 336 h, dose 150-300 mg/kg
# Rattus norvegicus [19] = test: Neuroprotective activity in Sprague-Dawley rat model of middle cerebral artery occlusion-induced ischemia-reperfusion injury assessed as decrease in neurological score at 20 mg/kg, po measured 24 hrs post injury by TTC staining based histological analysis; type: functional
# [20] = Toxicity in Sprague-Dawley rat assessed as change in kidney/brain index at 150 to 300 mg/kg, po administered as repeated dose once daily for 2 weeks; type: organism-based; conditions: in vivo, 336 h, dose 150-300 mg/kg
# [21] = Bioavailability in Sprague-Dawley rat at 2.5 mg/kg, iv measured up to 24 hrs by LC/MS-MS analysis; type: ADME, organism-based; conditions: in vivo
# [22] = Tmax in Sprague-Dawley rat at 10 mg/kg, po measured up to 24 hrs by LC/MS-MS analysis; type: ADME, organism-based; conditions: in vivo
# [23] = Toxicity in Sprague-Dawley rat assessed as change in white blood cell count at 150 to 300 mg/kg, po administered as repeated dose once daily for 2 weeks; type: organism-based; conditions: in vivo, 336 h, dose 150-300 mg/kg
# [24] = Toxicity in Sprague-Dawley rat assessed as increase in AST level at 300 mg/kg, po administered as repeated dose once daily for 2 weeks; type: organism-based; conditions: in vivo, 336 h
# [25] = AUCinf in Sprague-Dawley rat at 2.5 mg/kg, iv measured up to 24 hrs by LC/MS-MS analysis; type: ADME, organism-based; design: dose 2.5 mg/kg, time < 24 hrs, route iv; conditions: in vivo
# [26] = Toxicity in Sprague-Dawley rat assessed as change in ALT level at 150 to 300 mg/kg, po administered as repeated dose once daily for 2 weeks; type: organism-based; conditions: in vivo, 336 h, dose 150-300 mg/kg
# [27] = Ratio AUClast in Sprague-Dawley rat brain to plasma at 2.5 mg/kg, iv measured up to 24 hrs by LC/MS-MS analysis; type: ADME, organism-based; conditions: brain and plasma
# [28] = Toxicity in Sprague-Dawley rat assessed as change in AST level at 150 to 300 mg/kg, po administered as repeated dose once daily for 2 weeks; type: organism-based; conditions: in vivo, 336 h, dose 150-300 mg/kg
# [29] = Toxicity in Sprague-Dawley rat assessed as body weight loss at 300 mg/kg, po administered as repeated dose once daily for 2 weeks; type: organism-based; conditions: in vivo, 336 h
# [30] = Neuroprotective activity against NMDA-induced neurotoxicity in Sprague-Dawley rat hippocampal neurons assessed as increase in cell viability at 1 uM incubated for 18 hrs followed by NMDA addition and measured after 0.5 hrs by MTT assay; type: functional, Hippocampal neurone; conditions: time 18.5 hrs, 1 µM
# [31] = Cmax in Sprague-Dawley rat at 2.5 mg/kg, iv measured up to 24 hrs by LC/MS-MS analysis; type: ADME, organism-based; design: dose 2.5 mg/kg, time < 24 hrs, route iv; conditions: in vivo
# [32] = Toxicity in Sprague-Dawley rat assessed as animal death at 300 mg/kg, po administered as repeated dose once daily for 2 weeks; type: organism-based; conditions: in vivo, 336 h
structure (smiles),measurement,setting,value
O=C1OC(CCCN2CCN(Cc3ccc(C(F)(F)F)cc3)CC2)c2ccccc21 (racemic),AUC(0-t) at 24 h,[1],1.45 µg·h/mL
same,clearance,[2],1.77 L/h/kg
same,MRT inf,[3],3.25 h
same,Activity,[4],Non-Toxic
same,half-life,[5],1.73 h
same,Ki,Glutamate NMDA receptor,3.26 nM
same,Activity,[6],89.8%
same,Activity,[7],Non-Toxic
same,Kp at 24 h,[8],0.85
same,Tmax,[9],1.02 min
same,half-life,[10],1.88 h
same,Cmax,[11],0.972 µg/mL
same,Activity,[12],60.14%
same,Activity,Rattus norvegicus [13],16.08%
same,MRT inf,[14],1.68 h
same,AUC(0-inf),[15],4.07 µg·h/mL
same,Activity,[16],Non-Toxic
same,AUC(0-t) at 24 h,[17],3.67 µg·h/mL
same,Activity,[18],Non-Toxic
same,Activity,Rattus norvegicus [19],1.88
same,Activity,[20],Non-Toxic
same,bioavailability,[21],63.4%
same,Tmax,[22],1.5 h
same,Activity,[23],Non-Toxic
same,Activity,[24],Toxic
same,AUC(0-inf),[25],1.58 µg·h/mL
same,Activity,[26],Non-Toxic
same,Kp at 24 h,[27],0.71
same,Activity,[28],Non-Toxic
same,Activity,[29],Toxic
same,Activity,[30],78.45%
same,Cmax,[31],2.36 µg/mL
same,Activity,[32],Non-Toxic
